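Values below derive from 48-hour exposures of cells grown in 96-well plates, with endpoints linearly interpolated between the two concentrations bracketing the appropriate inhibition level. Abbreviation: GI50, concentration required for 50% inhibition of growth. At the TGI there is no net growth.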 Active and inactive are the calls of the source. No stated cut-off is given here; in the data, active means GI50 below about 0.43 µM; inactive means the rest.
The molecules below were run on OVCAR-5 ovarian (assay: NCI tumour cell line growth inhibition, 48 h).
`CN(C)CCCNC(=O)c1cc2[nH]c3c(cnc4ccc([N+](=O)[O-])cc43)c(=O)c2n1C` was tested, and the GI50 was 17.8 µM and the TGI was 31.6 µM.

The molecules below were run on MDA-MB-231 breast (assay: NCI tumour cell line growth inhibition, 48 h).
With `C=C(CNCc1ccccc1)c1ccc(C(=O)Nc2ccccc2N)cc1` the GI50 was 13.2 µM and the TGI was 54.5 µM.
`C=C1CC[C@@H]2[C@](C)(COC(C)=O)[C@H](OC(C)=O)CC[C@@]2(C)[C@@H]1CC(Sc1ccccc1)C1=CCOC1=O` (stereo not given in full) showed a GI50 of 2.47 µM and a TGI of 6.3 µM.
`CN(C)CCCNC(=O)c1cc2[nH]c3c(cnc4ccc([N+](=O)[O-])cc43)c(=O)c2n1C` was tested, and the GI50 was 16.9 µM and the TGI was 30.7 µM.

What follows are molecules tested on MCF7 breast (assay: NCI tumour cell line growth inhibition, 48 h).
With `C=C(CNCc1ccccc1)c1ccc(C(=O)Nc2ccccc2N)cc1` the GI50 was 41.1 µM and the TGI was over 100 µM.
For `Cn1c2ccccc2c2c3c(c4c5cc(Br)ccc5n(C)c4c21)C(=O)N(O)C3=O`, the GI50 was 0.0579 µM and the TGI was over 100 µM.
Work on `C=C1CC[C@@H]2[C@](C)(COC(C)=O)[C@H](OC(C)=O)CC[C@@]2(C)[C@@H]1CC(Sc1ccccc1)C1=CCOC1=O` (stereo not given in full) yielded a GI50 of 0.538 µM and a TGI of 2.35 µM.
For `CN(C)CCCNC(=O)c1cc2[nH]c3c(cnc4ccc([N+](=O)[O-])cc43)c(=O)c2n1C`, the GI50 was 15.5 µM and the TGI was 28.9 µM.

These molecules were tested on SNB-75 CNS (assay: NCI tumour cell line growth inhibition, 48 h).
`C=C(CNCc1ccccc1)c1ccc(C(=O)Nc2ccccc2N)cc1` showed a GI50 of 38.2 µM and a TGI of 93 µM.
`Cn1c2ccccc2c2c3c(c4c5cc(Br)ccc5n(C)c4c21)C(=O)N(O)C3=O` gave a GI50 of 0.0595 µM and a TGI of 0.659 µM.
Work on `C=C1CC[C@@H]2[C@](C)(COC(C)=O)[C@H](OC(C)=O)CC[C@@]2(C)[C@@H]1CC(Sc1ccccc1)C1=CCOC1=O` (stereo not given in full) yielded a GI50 of 1.3 µM and a TGI of 2.9 µM.
For `CN(C)CCCNC(=O)c1cc2[nH]c3c(cnc4ccc([N+](=O)[O-])cc43)c(=O)c2n1C`, the GI50 was 15.5 µM and the TGI was 28.9 µM.

These molecules were tested on DU-145 prostate (assay: NCI tumour cell line growth inhibition, 48 h).
In the case of `C=C(CNCc1ccccc1)c1ccc(C(=O)Nc2ccccc2N)cc1`, the GI50 is reported as 5.05 µM and the TGI is reported as over 100 µM.
With `O=[N+]([O-])C(=C(Cl)Cl)/C(Cl)=C(\Cl)Br` the outcome was “inactive”.
`C=C1CC[C@@H]2[C@](C)(COC(C)=O)[C@H](OC(C)=O)CC[C@@]2(C)[C@@H]1CC(Sc1ccccc1)C1=CCOC1=O` (stereo not given in full) showed a GI50 of 1.41 µM and a TGI of 2.74 µM.
In the case of `CN(C)CCCNC(=O)c1cc2[nH]c3c(cnc4ccc([N+](=O)[O-])cc43)c(=O)c2n1C`, the GI50 is reported as 12.6 µM and the TGI is reported as 25.1 µM.

The molecules below were run on CAKI-1 renal (assay: NCI tumour cell line growth inhibition, 48 h).
For `C=C(CNCc1ccccc1)c1ccc(C(=O)Nc2ccccc2N)cc1`, the GI50 was 5.35 µM and the TGI was 32.5 µM.
With `C=C1CC[C@@H]2[C@](C)(COC(C)=O)[C@H](OC(C)=O)CC[C@@]2(C)[C@@H]1CC(Sc1ccccc1)C1=CCOC1=O` (stereo not given in full) the GI50 was 2.77 µM and the TGI was 11.5 µM.

What follows are molecules tested on SN12C renal (assay: NCI tumour cell line growth inhibition, 48 h).
`C=C(CNCc1ccccc1)c1ccc(C(=O)Nc2ccccc2N)cc1` was tested, and the GI50 was 0.583 µM and the TGI was 14.8 µM.
Molecule `C=C1CC[C@@H]2[C@](C)(COC(C)=O)[C@H](OC(C)=O)CC[C@@]2(C)[C@@H]1CC(Sc1ccccc1)C1=CCOC1=O` (stereo not given in full) has a GI50 of 2.1 µM and a TGI of 7.07 µM.
In the case of `CN(C)CCCNC(=O)c1cc2[nH]c3c(cnc4ccc([N+](=O)[O-])cc43)c(=O)c2n1C`, the GI50 is reported as 20.8 µM and the TGI is reported as 35.4 µM.

These molecules were tested on T-47D breast (assay: NCI tumour cell line growth inhibition, 48 h).
Work on `C=C(CNCc1ccccc1)c1ccc(C(=O)Nc2ccccc2N)cc1` yielded a GI50 of 1.59 µM and a TGI of over 100 µM.
Molecule `C=C1CC[C@@H]2[C@](C)(COC(C)=O)[C@H](OC(C)=O)CC[C@@]2(C)[C@@H]1CC(Sc1ccccc1)C1=CCOC1=O` (stereo not given in full) has a GI50 of 2.01 µM and a TGI of 8.32 µM.
With `CN(C)CCCNC(=O)c1cc2[nH]c3c(cnc4ccc([N+](=O)[O-])cc43)c(=O)c2n1C` the GI50 was 19.3 µM and the TGI was 39.2 µM.

These molecules were tested on ACHN renal (assay: NCI tumour cell line growth inhibition, 48 h).
With `C=C(CNCc1ccccc1)c1ccc(C(=O)Nc2ccccc2N)cc1` the GI50 was 9.79 µM and the TGI was 84.3 µM.
`Cn1c2ccccc2c2c3c(c4c5cc(Br)ccc5n(C)c4c21)C(=O)N(O)C3=O` gave a GI50 of 0.0346 µM and a TGI of 0.124 µM.
`C=C1CC[C@@H]2[C@](C)(COC(C)=O)[C@H](OC(C)=O)CC[C@@]2(C)[C@@H]1CC(Sc1ccccc1)C1=CCOC1=O` (stereo not given in full) was tested, and the GI50 was 1.34 µM and the TGI was 2.84 µM.
In the case of `CN(C)CCCNC(=O)c1cc2[nH]c3c(cnc4ccc([N+](=O)[O-])cc43)c(=O)c2n1C`, the GI50 is reported as 14.5 µM and the TGI is reported as 27.9 µM.

What follows are molecules tested on PC-3 prostate (assay: NCI tumour cell line growth inhibition, 48 h).
With `C=C(CNCc1ccccc1)c1ccc(C(=O)Nc2ccccc2N)cc1` the GI50 was 18.5 µM and the TGI was over 100 µM.
For `Cn1c2ccccc2c2c3c(c4c5cc(Br)ccc5n(C)c4c21)C(=O)N(O)C3=O`, the GI50 was 0.497 µM and the TGI was over 100 µM.
In the case of `C=C1CC[C@@H]2[C@](C)(COC(C)=O)[C@H](OC(C)=O)CC[C@@]2(C)[C@@H]1CC(Sc1ccccc1)C1=CCOC1=O` (stereo not given in full), the GI50 is reported as 1.84 µM and the TGI is reported as 10.1 µM.

The molecules below were run on UACC-257 melanoma (assay: NCI tumour cell line growth inhibition, 48 h).
`C=C(CNCc1ccccc1)c1ccc(C(=O)Nc2ccccc2N)cc1` gave a GI50 of 1.54 µM and a TGI of 15.5 µM.
`Cn1c2ccccc2c2c3c(c4c5cc(Br)ccc5n(C)c4c21)C(=O)N(O)C3=O` showed a GI50 of 0.264 µM and a TGI of over 100 µM.
Work on `C=C1CC[C@@H]2[C@](C)(COC(C)=O)[C@H](OC(C)=O)CC[C@@]2(C)[C@@H]1CC(Sc1ccccc1)C1=CCOC1=O` (stereo not given in full) yielded a GI50 of 1.91 µM and a TGI of 3.71 µM.
With `CN(C)CCCNC(=O)c1cc2[nH]c3c(cnc4ccc([N+](=O)[O-])cc43)c(=O)c2n1C` the GI50 was 21.2 µM and the TGI was 39.7 µM.

The molecules below were run on UO-31 renal (assay: NCI tumour cell line growth inhibition, 48 h).
`C=C(CNCc1ccccc1)c1ccc(C(=O)Nc2ccccc2N)cc1` was tested, and the GI50 was 3.64 µM and the TGI was 18.2 µM.
For `C=C1CC[C@@H]2[C@](C)(COC(C)=O)[C@H](OC(C)=O)CC[C@@]2(C)[C@@H]1CC(Sc1ccccc1)C1=CCOC1=O` (stereo not given in full), the GI50 was 1.2 µM and the TGI was 2.53 µM.
`CN(C)CCCNC(=O)c1cc2[nH]c3c(cnc4ccc([N+](=O)[O-])cc43)c(=O)c2n1C` showed a GI50 of 17 µM and a TGI of 32.1 µM.

These molecules were tested on M14 melanoma (assay: NCI tumour cell line growth inhibition, 48 h).
In the case of `C=C(CNCc1ccccc1)c1ccc(C(=O)Nc2ccccc2N)cc1`, the GI50 is reported as 29.8 µM and the TGI is reported as over 100 µM.
Work on `C=C1CC[C@@H]2[C@](C)(COC(C)=O)[C@H](OC(C)=O)CC[C@@]2(C)[C@@H]1CC(Sc1ccccc1)C1=CCOC1=O` (stereo not given in full) yielded a GI50 of 1.47 µM and a TGI of 3.69 µM.
With `CN(C)CCCNC(=O)c1cc2[nH]c3c(cnc4ccc([N+](=O)[O-])cc43)c(=O)c2n1C` the GI50 was 17.3 µM and the TGI was 31.1 µM.

Each molecule was assayed on HS 578T breast (assay: NCI tumour cell line growth inhibition, 48 h).
Work on `C=C(CNCc1ccccc1)c1ccc(C(=O)Nc2ccccc2N)cc1` yielded a GI50 of 15.2 µM and a TGI of over 100 µM.
`Cn1c2ccccc2c2c3c(c4c5cc(Br)ccc5n(C)c4c21)C(=O)N(O)C3=O` gave a GI50 of 1.09 µM and a TGI of over 100 µM.
With `O=[N+]([O-])C(=C(Cl)Cl)/C(Cl)=C(\Cl)Br` the outcome was “inactive”.
`C=C1CC[C@@H]2[C@](C)(COC(C)=O)[C@H](OC(C)=O)CC[C@@]2(C)[C@@H]1CC(Sc1ccccc1)C1=CCOC1=O` (stereo not given in full) was tested, and the GI50 was 4.89 µM and the TGI was 63.3 µM.
Work on `CN(C)CCCNC(=O)c1cc2[nH]c3c(cnc4ccc([N+](=O)[O-])cc43)c(=O)c2n1C` yielded a GI50 of 18.1 µM and a TGI of 41.3 µM.

Each molecule was assayed on NCI-H23 lung (assay: NCI tumour cell line growth inhibition, 48 h).
Molecule `C=C(CNCc1ccccc1)c1ccc(C(=O)Nc2ccccc2N)cc1` has a GI50 of 2.37 µM and a TGI of 8.23 µM.
`C=C1CC[C@@H]2[C@](C)(COC(C)=O)[C@H](OC(C)=O)CC[C@@]2(C)[C@@H]1CC(Sc1ccccc1)C1=CCOC1=O` (stereo not given in full) was tested, and the GI50 was 1.78 µM and the TGI was 3.67 µM.
`CN(C)CCCNC(=O)c1cc2[nH]c3c(cnc4ccc([N+](=O)[O-])cc43)c(=O)c2n1C` showed a GI50 of 20.5 µM and a TGI of 44.1 µM.

The molecules below were run on HCT-15 colon (assay: NCI tumour cell line growth inhibition, 48 h).
`C=C(CNCc1ccccc1)c1ccc(C(=O)Nc2ccccc2N)cc1` gave a GI50 of 36.5 µM and a TGI of over 100 µM.
With `Cn1c2ccccc2c2c3c(c4c5cc(Br)ccc5n(C)c4c21)C(=O)N(O)C3=O` the GI50 was 0.199 µM and the TGI was over 100 µM.
